Source: patent US10196363B2, “Dihydropyrimidin-2-one compounds and medical use thereof” (JAPAN TOBACCO INC., priority 2014, dated 2019)
Read-outs that look alike come from different tables or passages of the source.

Tests used:
[1] = target: T1, mouse RORγ (Mus musculus, UniProt P51450); test: In vitro assay of inhibitory effect against RORγ transcriptional activity (GAL4-mRORγ LBD luciferase reporter gene assay in CHO cells); format: cell-based
T1 construct: mouse RORγ, from Ile251 to Lys516; expressed in transfected cells; host or cells: CHO cells (Chinese hamster ovary), transient co-transfection with pG5-Luc
T1 sequence (P51450 251-516): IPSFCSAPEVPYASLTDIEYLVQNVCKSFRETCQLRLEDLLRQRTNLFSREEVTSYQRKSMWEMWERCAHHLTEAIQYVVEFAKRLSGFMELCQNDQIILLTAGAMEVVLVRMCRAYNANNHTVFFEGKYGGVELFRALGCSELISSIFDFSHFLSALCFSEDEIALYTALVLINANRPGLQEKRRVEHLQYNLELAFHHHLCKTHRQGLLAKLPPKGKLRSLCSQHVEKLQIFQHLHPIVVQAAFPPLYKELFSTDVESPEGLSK
Description: (§1) In Vitro Assay of Inhibitory Effect Against RORγ Transcriptional Activity
(§2) Inhibitory effect of a test article on transcriptional activity of RORγ was measured by means of the following reporter gene assay.
(§3) cDNA encoding human and mouse RORγ ligand binding domain (LBD) were obtained based on the sequences of human RORγ (Genebank registered number NM_005060.3) and mouse RORγ (Genebank registered number NM_011281.2) (LBD sequence: human RORγ, from Ser253 to Lys518; mouse RORγ, from Ile251 to Lys516).
(§4) The LBD cDNA of human or mouse RORγ was inserted into pFA-CMV vector (Strategene), which expresses GAL4-DNA binding domain fusion protein. The resulting plasmids are hereinafter referred to as GAL4-hRORγ plasmid and GAL4-mRORγ plasmid, respectively.
(§5) GAL4-hRORγ plasmid or GAL4-mRORγ plasmid was transiently co-transfected into Chinese hamster ovary cells (CHO cells) with pG5-Luc (Promega), a reporter plasmid expressing firefly luciferase depending on GAL4.
(§6) TransIT (Registered trademark) CHO transfection reagent (Mirus) was used to co-transfect GAL4-hRORγ plasmid or GAL4-mRORγ plasmid into CHO cells with pG5-Luc plasmid. One day before the assay, CHO cells were suspended in HAM F-12 Nutrient medium containing 10 v/v % fetal bovine serum and seeded at 6×10^6 cells per 175 cm^2 cell culture flask. Fifty four micro litters of TransIT (Registered trademark) CHO reagent was added into a 15 ml tube containing 1.16 mL of HAM F-12 Nutrient medium without fetal bovine serum, and mixed and incubated at room temperature for 10 min. Thirty six micro litters of plasmid solution containing the GAL4-hRORγ plasmid (400 ng), pG5-Luc plasmid (9000 ng) and pcDNA3 plasmid (8600 ng) were added into the tube and mixed gently. In case of mouse assay, a plasmid solution containing the GAL4-mRORγ plasmid (250 ng), pG5-Luc plasmid (9000 ng) and pcDNA3 plasmid (8750 ng) was added, instead. The mixture was incubated at room temperature for 10 min. Nine micro litters of CHO Mojo Reagent were then added into each tube and mixed gently. The mixture was incubated at room temperature for 10 min. The resultant transfection reagent was applied to the cell culture. After incubation at 37° C., 5% CO2 for 4 hours, the plasmid-transfected CHO cells were harvested with a trypsin treatment. The collected cells were resuspended in HAM F-12 Nutrient medium supplemented with 10 v/v % fetal bovine serum and plated into a 384-well-white plate at 8,000 cells/50 μL/well. The plate was incubated at room temperature for 1 hour and then further incubated at 37° C., 5% CO2 for 3 hours. The test articles were dissolved in dimethylsulfoxide (DMSO) to obtain a concentration of 10 mM. The resulting solution was diluted with a medium just before use and added to the cells in the plate to prepare 8 different concentrations of the test article. The final concentration of DMSO was 0.2 v/v %. After the addition of the test articles, the cells were incubated at 37° C., 5% CO2 for 2 days.
(§7) RORγ transcriptional activity was detected as the intracellular luciferase activity using SteadyLite HTS Reporter Gene Assay System (Perkin Elmer). StedyLite Reagent was diluted five-fold into a solution containing Extension reagent (10 mM Tricine, 0.2% w/v BSA, 0.02% v/v Tween-20) to obtain the luciferase substrate solution. After the measurement of the cell viability using Resazurin, the culture media in the plate were removed, and then the luciferase substrate solution was added into each well. After the incubation at room temperature for 10 minutes, luminescence of each well was measured by a microplate reader. The luciferase activity derived from the luminescence count in the vehicle-control well treated with 0.2% DMSO alone was defined as 100%, and the luciferase activity in the test article was calculated as a percentage (%-of-control) based on the value of the vehicle-control. EC50 value of test article was calculated by curve fitting with GraphPad Prism. […]

[2] = target: T2, human RORγ (Homo sapiens, UniProt P51449); test: In vitro assay of inhibitory effect against RORγ transcriptional activity (GAL4-hRORγ LBD luciferase reporter gene assay in CHO cells); format: cell-based; details: for hRORγ luciferase activity, %-of-control: vehicle-control 0.2% DMSO alone = 100%
T2 construct: human RORγ, from Ser253 to Lys518; expressed in transfected cells; host or cells: CHO cells (Chinese hamster ovary), transient co-transfection with pG5-Luc
T2 sequence (P51449 253-518): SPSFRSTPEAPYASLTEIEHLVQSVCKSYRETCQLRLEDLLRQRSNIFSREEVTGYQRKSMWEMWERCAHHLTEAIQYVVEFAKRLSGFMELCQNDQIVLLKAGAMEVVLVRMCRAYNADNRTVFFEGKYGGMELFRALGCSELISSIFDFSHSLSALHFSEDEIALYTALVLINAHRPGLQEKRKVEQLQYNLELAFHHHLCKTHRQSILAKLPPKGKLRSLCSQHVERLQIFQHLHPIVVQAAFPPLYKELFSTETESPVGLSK
Description: as §1, §2, §3, §4, §5, §6, §7

[3] = GAL4-mRORγ LBD / pG5-Luc in CHO cells, 2 days incubation
[4] = GAL4-hRORγ LBD / pG5-Luc in CHO cells, 2 days incubation
[5] = GAL4-mRORγ LBD luciferase reporter, CHO cells, read-out: LUC EC50 mRORγ
[6] = GAL4-hRORγ LBD luciferase reporter, CHO cells, read-out: LUC EC50 hRORγ

Row | Compound | EC50 [1, 3] [µM] | EC50 [2, 4] [µM] | EC50 [1, 5] [µM] | EC50 [2, 6] [µM] | also measured
1 | CC(C)C1=CN(CCC(=O)O)C(=O)N[C@@]1(C)c1ccc(CCC(C)(C)C(F)(F)F)c(Cl)c1 [Example 185] | 0.014 | 0.009 | – | – | –
2 | COC(C)CC1=CN(CCC(=O)O)C(=O)N[C@@]1(C)c1ccc([C@H]2C[C@@H](C(C)(C)C)C2)c(Cl)c1 (some centres unmarked) [Example 304] | – | – | 0.019 | 0.021 | –
3 | CC(C)C1=CN(CCC(=O)O)C(=O)N[C@@]1(C)c1ccc(S(=O)(=O)C2CCCC2)c(Cl)c1 [Example 227] | – | – | > 20 | > 20 | mRORγ luciferase activity, %-of-control ([1]; value in parentheses beside the EC50 bound, vehicle-control 0.2% DMSO alone = 100%): (87%); hRORγ luciferase activity, %-of-control ([2]; value in parentheses beside the EC50 bound): (89%)
4 | CC(C)C1=CN([C@@H]2CCC[C@@H]2C(=O)O)C(=O)N[C@@]1(C)c1ccc(CCC(C)(C)C)c(Cl)c1 [Example 234] | – | – | 0.534 | 0.964 | –
5 | CC(C)C1=CN([C@H]2CC(=O)N(CC(=O)O)C2)C(=O)N[C@@]1(C)c1ccc(CCC(C)(C)C)c(Cl)c1 [Example 162] | 0.275 | 0.172 | – | – | –
6 | COCCN1C=C(c2ccc(C(=O)O)cc2)[C@](C)(c2ccc(CCC(C)(C)C)c(Cl)c2)NC1=O [Example 225] | – | – | 0.072 | 0.101 | –
7 | CC(C)C1=CN(CCC(=O)O)C(=O)N[C@@]1(C)c1ccc(C2CCC2)c(Cl)c1 [Example 153] | 0.116 | 0.327 | – | – | –
8 | CC(C)C1=CN(CCCC(=O)O)C(=O)NC1(C)c1ccc(OCC(C)(C)C)c(Cl)c1 (single isomer, unassigned) [Example 12] | 0.017 | 0.023 | – | – | –
9 | CC(C)C1=CN(CCC(C)C(=O)O)C(=O)NC1(C)c1ccc(CCC(C)(C)C)c(Cl)c1 (single isomer, unassigned) [Example 24] | 2.93 | 2.94 | – | – | –
10 | CC(C)C1=CN(CCC(=O)O)C(=O)N[C@@]1(C)c1ccc(C2CC2C(C)(C)C)c(Cl)c1 (single isomer, unassigned) [Example 170] | 0.04 | 0.058 | – | – | –
11 | CCOC(=O)C1CNCC1N1C=C(C(C)C)[C@](C)(c2ccc(CCC(C)(C)C)c(Cl)c2)NC1=O (single isomer, unassigned) [Example 245] | – | – | 0.301 | 0.261 | –
12 | CC(C)C1=CN(C23CC(C(=O)O)(C2)C3)C(=O)N[C@]1(C)c1ccc(CCC(C)(C)C)c(Cl)c1 [Example 76] | 6.36 | 3.47 | – | – | –
13 | COCCOc1ccc([C@]2(C)NC(=O)N(CCC(=O)O)C=C2C(C)C)cc1Cl [Example 127] | 1.95 | 2.94 | – | – | –
14 | COCC(C)C1=CN(c2ccc(C(=O)O)cc2)C(=O)N[C@@]1(C)c1ccc(CCC(C)(C)C)c(Cl)c1 (single isomer, unassigned) [Example 307] | – | – | 0.013 | 0.005 | –
15 | CC(C)C1=CN(C23C4C5C2C2C3C4C52C(=O)O)C(=O)N[C@@]1(C)c1ccc(CCC(C)(C)C)c(Cl)c1 (single isomer, unassigned) [Example 222] | – | – | 0.04 | 0.02 | –
16 | CC(C)C1=CN(CCC(=O)O)C(=O)N[C@@]1(C)c1ccc(CCC2(C)CC2)c(Cl)c1 [Example 132] | 0.014 | 0.018 | – | – | –

Row | Compound | EC50 [1, 3] [µM] | EC50 [2, 4] [µM] | EC50 [1, 5] [µM] | EC50 [2, 6] [µM] | also measured
17 | CC(C)C1=CN(CCC(=O)O)C(=O)N[C@@]1(C)c1ccc(CC(O)C(C)(C)C)c(Cl)c1 (single isomer, unassigned) [Example 310] | – | – | 0.277 | 0.476 | –
18 | CC(C)(C)CCc1ccc([C@]2(C)NC(=O)N(C3CCOCC3)C=C2[C@H]2C[C@@H](C(=O)O)C2)cc1Cl [Example 199] | – | – | 0.136 | 0.07 | –
19 | CO[C@H]1C[C@H](N2C=C(C(C)(C)CCC(=O)O)[C@](C)(c3ccc(CCC(C)(C)C)c(Cl)c3)NC2=O)C1 [Example 197] | – | – | 0.023 | 0.013 | –
20 | COCCC1=CN(C23CC(C(=O)O)(C2)C3)C(=O)N[C@@]1(C)c1ccc(CCC(C)(C)C)c(C(F)(F)F)c1 [Example 340] | – | – | 0.043 | 0.123 | –
21 | CC(C)COc1c(F)cc([C@]2(C)NC(=O)N(CCC(=O)O)C=C2C(C)C)cc1Cl [Example 194] | – | – | 0.028 | 0.058 | –
22 | CC(C)C1=CN(CCC(=O)O)C(=O)N[C@@]1(C)c1ccc(CCc2ccccc2)c(Cl)c1 [Example 144] | 0.037 | > 0.512 | – | – | hRORγ luciferase activity, %-of-control ([2]; value in parentheses beside the > EC50 bound): (60%)
23 | CC(C)=Cc1ccc(C2(C)NC(=O)N(CCCC(=O)O)C=C2C(C)C)cc1 (racemic) [Example 188] | 1.13 | 2.61 | – | – | –
24 | CCCCc1ccc(C2(C)NC(=O)N(CCCC(=O)O)C=C2C(C)C)cc1OCc1ccccc1 (racemic) [Example 85] | 0.368 | 0.545 | – | – | –
25 | CC(C)C1=CN(C2CC3(CC(C(=O)O)C3)C2)C(=O)N[C@@]1(C)c1ccc(CCC(C)(C)C)c(Cl)c1 (single isomer, unassigned) [Example 233] | – | – | 0.072 | 0.069 | –
26 | CC(C)C1=CN(CCC(=O)O)C(=O)N[C@@]1(C)c1ccc(C2CCCC2)c(Cl)c1 [Example 156] | 0.166 | 0.52 | – | – | –
27 | CC(C)CC1=CN(CCC(=O)O)C(=O)N[C@@]1(C)c1ccc(OCC(C)(C)C)c(Cl)c1F [Example 201] | – | – | 0.051 | 0.06 | –
28 | CC(C)(C)CCc1ccc([C@]2(C)NC(=O)N(c3ccc(C(=O)O)cc3)C=C2CCCOC(C)(C)C)cc1Cl [Example 313] | – | – | 0.366 | 0.26 | –
29 | CC(C)C1=CN(CCC(=O)O)C(=O)N[C@@]1(C)c1ccc(CCC2CCC2)c(Cl)c1 [Example 122] | 0.015 | 0.028 | – | – | –
30 | CC(C)C1=CN(C[C@H]2C[C@H](C(=O)O)C2)C(=O)N[C@@]1(C)c1ccc(CCC(C)(C)C)c(Cl)c1 [Example 154, 3-{(S)-4-[3-chloro-4-(3,3-dimethyl-butyl)-phenyl]-5-isopropyl-4-methyl-2-oxo-3,4-dihydro-2H-pyrimidin-1-ylmethyl}-cyclobutanecarboxylic acid] | 0.014 | 0.01 | – | – | –
31 | CC(C)(C)CCc1ccc([C@@]2(C)NC(=O)N(CCCC(=O)O)C=C2C2CC2)cc1Cl [Example 56] | 4.29 | 5.16 | – | – | –
